Key:
Prostacyclin (PGI2) = experiment: Prostacyclin stimulation in aortic rings ex vivo; details: 30 mg/kg p.o., Ratten
Experimental: Aortenringe von mit Prüfsubstanzen vorbehandelten Ratten werden 10 Minuten bei 37°C in Trispuffer (pH 7,8) inkubiert. Das sich bildende Prostacyclin wird nach Umwandlung zu dem stabilen 6-Keto-PGF radioimmunologisch bestimmt. Literatur: Mc Intyre, D.E., Salzman, E.W., Thrombos. Haemostas. 46, 19, 1981. Seuter, F. et al., 6th International Symposium on Atherosclerosis, Abstr. 270, Berlin 1982.

5-Lipoxygenase = target: T1, 5-Lipoxygenase (Homo sapiens, UniProt P09917); experiment: cell-based
T1 sequence (P09917 1-674): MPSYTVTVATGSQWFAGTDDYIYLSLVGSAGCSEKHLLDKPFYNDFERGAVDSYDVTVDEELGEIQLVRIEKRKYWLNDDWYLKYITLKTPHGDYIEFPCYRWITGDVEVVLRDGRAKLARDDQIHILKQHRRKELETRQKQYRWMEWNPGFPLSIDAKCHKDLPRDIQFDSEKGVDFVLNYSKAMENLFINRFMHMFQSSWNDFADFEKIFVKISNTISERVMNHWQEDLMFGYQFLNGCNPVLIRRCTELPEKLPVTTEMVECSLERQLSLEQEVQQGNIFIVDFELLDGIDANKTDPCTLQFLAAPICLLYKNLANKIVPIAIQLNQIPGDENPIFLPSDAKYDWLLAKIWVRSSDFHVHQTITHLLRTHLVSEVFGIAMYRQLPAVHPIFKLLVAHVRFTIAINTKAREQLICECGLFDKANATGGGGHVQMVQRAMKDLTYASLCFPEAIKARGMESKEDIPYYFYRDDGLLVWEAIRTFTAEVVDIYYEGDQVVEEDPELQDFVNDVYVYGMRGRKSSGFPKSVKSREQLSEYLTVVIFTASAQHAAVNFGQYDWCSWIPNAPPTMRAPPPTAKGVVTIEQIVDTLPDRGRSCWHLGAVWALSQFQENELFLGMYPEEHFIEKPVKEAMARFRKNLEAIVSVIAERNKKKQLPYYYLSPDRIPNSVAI
Source text: Die Hemmung der Freisetzung von 5-HETE und Leukotrien B4 aus den Leukozyten stellt ein Maß für den lipoxygenasehemmenden Effekt der erfindungsgemäßen Verbindungen dar.
Der Test mit den Humanleukozyten wurde nach Borgeat und Samuelsson (J. Biol. Chem. 254, 2643, 1979 und Proc. Natl. Acad. Sci. USA, 76, 2148, 1979) durchgeführt.
Die im vorliegenden Beispiel verwendeten Human PMN-Leukozyten (w95 %) wurden aus heparinisiertem Vollblut durch eine Dextran-Sedimentation und anschließende Dichtegradiententrennung (Ficoll-Paque) gewonnen (vgl. A. Boyum, Scand. J. Immunol., 5, Suppl 5, 9, 1976).
2 x 10^7 Zellen/ml wurden in Ca2+-haltigem Dulbecco-Phosphat-Puffer suspendiert und in Anwesenheit bzw. Abwesenheit von Lipoxygenasehemmer mit dem Calcium-Ionophor A 23187 stimuliert.
Nach 15 Minuten wurden die Lipoxygenaseprodukte aus dem angesäuerten Inkubationsmedium extrahiert und mittels HPLC getrennt. Die Hochdruckflüssigkeitschromatographie wurde auf Lichrosorb RP-18(5 µm)-Säulen durchgeführt. Das Laufmittel war Methanol/Wasser/Eisessig 69/ 31/0.01. Die Flußrate betrug 1 ml/min. Leukotrien B4 wurde bei 280 nm, die HETE-Derivate bei 232 nm mittels der UV-Absorption bestimmt.

[1] = tested on: durch Arachidonsäure induzierten Thromboembolie; experiment: Protection against arachidonic acid induced thromboembolism; type: in vivo; details: 100 mg/kg p.o., Kaninchen, 1,5 mg/kg Na-arachidonat
Experimental: In diesem Modell wirken Substanzen, die mit der Prostaglandin- und Thromboxanbiosynthese interferieren. Kaninchen werden 1,5 mg/kg Na-arachidonat in eine marginale Ohrvene injiziert. Die Tiere sterben innerhalb von Minuten, vermutlich aufgrund vasospastischer Cyclooxygenase- und Lipoxygenaseprodukte sowie embolisierender Plättchenthromben. Vorbehandlung mit den erfindungsgemäßen Verbindungen schützt die Tiere, so daß diese überleben. Literatur: Silver, M.J. et al., Science 183, 1085, 1974 Seuter, F., Busse, W.D., Agents and Actions, Suppl. 4, 175, 1979.

Structure (SMILES): CSCCOC(=O)C1=C(C)Nc2ccccc2S1 [Herstellungsbeispiel 7]
- Fähigkeit von Aortenringen Prostacyclin zu synthetisieren (Prostacyclin (PGI2)): erhöht

Structure (SMILES): CC(Cc1ccc(O)c(O)c1)C(C)Cc1ccc(O)c(O)c1 (stereo not shown) [NDGA, Nordihydroguaretsäure]
- inhibition at 0.5 µg/mL (5-Lipoxygenase; 0.25 h, read-out: Hemmung): ~50%

Structure (SMILES): CC(C(=O)O)c1ccc2oc(-c3ccc(Cl)cc3)nc2c1 (stereo not shown) [Benoxaprofen]
- IC50 (5-Lipoxygenase): 33.1 to 166 µM

Structure (SMILES): O=C1CCCC2=C1Sc1ccccc1N2 [Herstellungs-beispiel 16]
- Überlebensrate % [1]: 66,6%

— patent EP0174458A1, “Use of 4H-1,4 benzothiazines in the prophylaxis and therapy of diseases of the breath ways, inflammations, rheumatisms, thromboembolic diseases, ischemia and infarctus, heart rhythm disorders, arteriosclerosis and dermatosis, therapeutic agents for this purpose and reactive compounds which are …” (BAYER AG, priority 1984, dated 1986)
